pIC50: −log10 of the molar value.
Assays:
[1] = tested on: production of IL-17 in mouse splenocytes stimulated by recombinant mouse interleukin-23; assay: Production of IL-17 induced when mouse splenocytes were stimulated by rm-IL-23 (ELISA); type: cell-based; conditions: Splenocyte, inhibition of IL-17 production, rm-IL-23 1 nmol/L, 72 hours
Method: Effect on Production of IL-17 Induced when Mouse Splenocytes were Stimulated by Recombinant Mouse Interleukin-23 (rm-IL-23)
RPMI1640 media (Sigma-Aldrich) were used as a medium, to which 50 units/mL penicillin G potassium/50 μg/mL streptomycin (Gibco) and […] 2-mercaptoethanol (Sigma-Aldrich) were added, and then thereto was added 10% of fetal calf serum (FCS; Cell Culture Technology) which was treated at 56° C. for 30 minutes to be inactivated, and the mixture was used in the Test. The test compound was dissolved in dimethylsulfoxide and then diluted with 10% FCS-containing RPMI1640 medium to a desired concentration to be used. The spleens were aseptically taken out from 6 to 7 week-old male DBA/1J mice (Charles River Japan, Inc.) and a single cell suspension of splenocytes was prepared, which was hemolyzed by hypotonic treatment with a mixed solution of 0.83% aqueous solution of ammonium chloride and Tris-HCl buffer of pH 7.65 (9:1). A cell suspension prepared by using 10% FCS-containing RPMI1640 medium was added to a flat-bottomed 96 well microtestplate (Coaster) at 2×10^5 cells/well. Thereto were added test compounds and rm-IL-23 (R&D systems) were diluted with a medium to 1 to 1,000 nmol/L and 1 nmol/L of the final concentration, respectively, and the mixture was cultured at 37° C., 5% carbon dioxide and 95% air for 72 hours. After completion of the culture, culture supernatant was sampled and production amounts of IL-17 therein were determined by ELISA method. After sampling the supernatant, WST-8 (Seikagaku Corporation) was added at 10 μl/well and cultured at 37° C., 5% carbon dioxide and 95% air for 4 hours. Then, absorbance (O.D.: Optical Density) at 450 nm was measured by a microplate reader and the value was adopted as an index of cell survivability. An inhibition rate was calculated according to the following formula on the basis of an average of production amounts of IL-17 and O.D. values of the well containing a test compound of each concentration. Inhibition (%)=(1−(Average value of well with addition of test compound)/(Average value of well without addition of test compound))×100
Based on the dose-response curve obtained by plotting the inhibition rate in the longitudinal axis and the concentration in the horizontal axis, the concentration of the compound which inhibits the level to 50% of the value of the control group (IC50) (nmol/L) was determined by linear regression analysis.

[2] = target: T1, hERG current in hERG-expressed HEK 293 cells (Homo sapiens, UniProt Q12809); assay: Effects on hERG current (whole-cell clamp); type: cell-based; conditions: 1 μM of test compound, tail peak current
T1 construct: host or cells: HEK 293 cells, G418-selected
T1 sequence (Q12809 whole entry): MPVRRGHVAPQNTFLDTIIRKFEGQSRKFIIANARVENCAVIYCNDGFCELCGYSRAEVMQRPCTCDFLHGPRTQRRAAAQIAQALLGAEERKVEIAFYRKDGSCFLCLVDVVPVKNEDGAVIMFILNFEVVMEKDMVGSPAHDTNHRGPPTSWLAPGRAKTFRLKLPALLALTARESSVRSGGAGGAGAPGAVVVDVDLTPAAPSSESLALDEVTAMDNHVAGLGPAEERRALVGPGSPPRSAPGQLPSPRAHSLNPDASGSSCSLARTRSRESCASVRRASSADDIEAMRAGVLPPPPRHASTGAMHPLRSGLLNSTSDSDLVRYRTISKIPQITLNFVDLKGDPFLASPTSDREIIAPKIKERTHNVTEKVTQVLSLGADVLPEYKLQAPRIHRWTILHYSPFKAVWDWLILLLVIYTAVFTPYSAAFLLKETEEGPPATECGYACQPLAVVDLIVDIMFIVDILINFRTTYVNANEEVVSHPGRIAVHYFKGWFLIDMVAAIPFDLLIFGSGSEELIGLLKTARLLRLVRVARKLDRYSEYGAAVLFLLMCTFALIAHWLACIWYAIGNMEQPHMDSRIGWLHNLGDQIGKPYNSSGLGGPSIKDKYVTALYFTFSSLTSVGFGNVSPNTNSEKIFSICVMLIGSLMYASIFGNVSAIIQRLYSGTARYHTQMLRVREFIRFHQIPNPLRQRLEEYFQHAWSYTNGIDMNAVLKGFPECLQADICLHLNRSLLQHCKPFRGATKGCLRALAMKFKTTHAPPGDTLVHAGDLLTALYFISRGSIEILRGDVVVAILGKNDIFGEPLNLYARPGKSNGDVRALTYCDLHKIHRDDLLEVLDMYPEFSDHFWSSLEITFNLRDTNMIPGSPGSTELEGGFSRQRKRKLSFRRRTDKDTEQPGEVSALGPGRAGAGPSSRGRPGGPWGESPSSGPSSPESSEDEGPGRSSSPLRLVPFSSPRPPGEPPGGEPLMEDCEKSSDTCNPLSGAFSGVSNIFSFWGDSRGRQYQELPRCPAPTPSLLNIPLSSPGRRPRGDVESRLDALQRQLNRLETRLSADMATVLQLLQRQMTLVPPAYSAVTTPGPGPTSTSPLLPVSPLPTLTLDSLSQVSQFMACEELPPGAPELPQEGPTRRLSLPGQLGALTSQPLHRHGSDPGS
Method: Dimethylsulfoxide was used as a vehicle, and hERG-expressed HEK 293 cells (Cytomyx) were used as test cells. Test cells were once cultured and subdivided and were stored under frozen condition in liquid nitrogen. In the study, thawed and subcultured cells having less than 30 of the passage number were used. Test cells were cultured in a carbon dioxide gas incubator BNP-110M (Tabai Espec Corp.) at 37±1° C. and 5.0±0.5% of carbon dioxide concentration. The component of culture medium was basically MEM (Minimum Essential Medium) supplemented with 10 vol % fetal bovine serum (non-activated), 1 mmol/L sodium pyruvate, 0.1 mmol/L non-essential amino acid and 100 U/mL penicillin/100 μg/mL streptomycin. To select gene-expressing cells, 400 μg/mL G418 Sulphate (Invitrogen) was added to the culture medium. […] A manufacturer of the culture solution is Invitrogen Corporation.
As to seeding of cells for measurement, subcultured cells which became confluent were treated with 0.25% trypsin-solution containing 1 mmol/L EDTA (Invitrogen) to remove therefrom, and seeded on dishes overlaid with sterilized collagen-coated cover glass (Iwaki, AGC Techno Glass Co., LTD). The medium was exchanged appropriately, including the day of measurement.
A perfusion method was carried out for an application route. Test cells were perfused (perfusion speed: approximately 4 mL/min) with an external solution containing specified concentrations of test compounds (component of external solution: 137 mmol/L of sodium chloride, 4 mmol/L of potassium chloride, 10 mmol/L of HEPES, 1.8 mmol/L of calcium chloride, 1 mmol/L of magnesium chloride and 10 mmol/L of glucose; adjusted to pH 7.4±0.1 with sodium hydroxide solution). When no effects were observed until 4 minutes after switching to a test compound solution, the next different concentration of the test compound was perfused. When effects were observed, the perfusion was continued until the maximum response was observed. The maximum perfusion time for lower concentrations of test compound was set for 10 minutes even when effects were observed. The data were obtained from one experiment or more and the cells which were gently incubated in a carbon dioxide incubator after seeding and attached to cover glasses were used for the measurement.
A whole-cell clamping method was applied to the measurement. Test cells were perfused (perfusion speed: approximately 4 mL/min) with an external solution (component of external solution: 137 mmol/L of sodium chloride, 4 mmol/L of potassium chloride, 10 mmol/L of HEPES, 1.8 mmol/L of calcium chloride, 1 mmol/L of magnesium chloride and 10 mmol/L of glucose; adjusted to pH 7.4±0.1 with sodium hydroxide solution). A glass electrode with a resistance of 2 to 6 MΩ, filled with an internal solution (component: 130 mmol/L of potassium chloride, 1 mmol/L of magnesium chloride, 5 mmol/L of EGTA, 10 mmol/L of HEPES and 5 mmol/L of ATP, adjusted to pH 7.2±0.1 with potassium hydroxide solution) was used. After rupturing cell membrane with glass electrode, the cell membrane voltage was held at −80 mV by using patch clamp amplifier (EPC8, HEKA) via a patch clamp software (pCLAMP9 [Axon CNS], Molecular Devices). As illustrated below, a test pulse of +20 mV for 1.5 seconds and −40 mV for 1.5 seconds was given once every 15 seconds. One minute or more after obtaining 500 pA or higher peak value of the stable tail currents, test compounds were applied. Test cells and the cell-seeded cover glass were changed every treatment. Temperature of the fluid in a perfusion fluid tank was 24±2° C.
The obtained current was recorded on a computer by using a patch clamp software via a patch clamp amplifier. An evaluation item was a tail peak current.
A tail peak current was analyzed using analyzing software (Clampfit 9 [Axon CNS], MolecularDevices). […]

| Compound | pIC50 [1] | Inhibition ratio (%) [2] [%] |
| --- | --- | --- |
| Cc1cc(NC(=O)c2cnn(-c3ccc(Cl)cc3)c2C)cnc1N1CCC(O)CC1 [Example 43, 1-(4-chlorophenyl)-N-[6-(4-hydroxypiperidin-1-yl)-5-methylpyridin-3-yl]-5-methyl-1H-pyrazole-4-carboxamide] | 6.99 | 9.4 |
| Cc1cc(NC(=O)c2cnn(-c3ccc(C(F)(F)F)cn3)c2C)cnc1N1CCC(C(C)(C)F)CC1 [Example 49, N-{6-[4-(1-fluoro-1-methylethyl)piperidin-1-yl]-5-methylpyridin-3-yl}-5-methyl-1-[5-(trifluoromethyl)pyridin-2-yl]-1H-pyrazole-4-carboxamide] | 7.26 | 40.5 |
| Cc1c(C(=O)Nc2cnc(N3CCC(O)CC3)c(C#N)c2)cnn1-c1ccc(C(F)(F)F)cc1 [Example 45, N-[5-cyano-6-(4-hydroxypiperidin-1-yl)pyridin-3-yl]-5-methyl-1-[4-(trifluoromethyl)phenyl]-1H-pyrazole-4-carboxamide] | 7.14 | 4.2 |
| Cc1cc(NC(=O)c2cnn(-c3ccc(C(F)(F)F)cc3)c2C)cnc1N1CCC(C(C)(C)F)CC1 [Example 47, N-{6-[4-(1-fluoro-1-methylethyl)piperidin-1-yl]-5-methylpyridin-3-yl}-5-methyl-1-[4-(trifluoromethyl)phenyl]-1H-pyrazole-4-carboxamide] | 7.24 | 32.7 |
| Cc1c(C(=O)Nc2cnc(N3CCC(O)CC3)c(C3CC3)c2)cnn1-c1ccc(Cl)cc1 [Example 39, 1-(4-chlorophenyl)-N-[5-cyclopropyl-6-(4-hydroxypiperidin-1-yl)pyridin-3-yl]-5-methyl-1H-pyrazole-4-carboxamide] | 6.87 | 8.1 |
| Cc1c(C(=O)Nc2cnc(N3CCC(O)CC3)c(C#N)c2)cnn1-c1ccc(Cl)cc1 [Example 44, 1-(4-chlorophenyl)-N-[5-cyano-6-(4-hydroxypiperidin-1-yl)pyridin-3-yl]-5-methyl-1H-pyrazole-4-carboxamide] | 7.13 | 2 |

Source: US9527859B2, “Amidopyridine derivative and use thereof” (Mitsubishi Tanabe Pharma Corporation, priority 2012, dated 2016)
